System: PMA-differentiated THP-1 cells
Assay: IL-1β production in PMA-differentiated THP-1 cells stimulated with gramicidin (hTHP-1 assay containing 2% fetal bovine serum; Procedures 1 and 2)
Assay type: cell-based, human
Conditions: Homo sapiens, THP-1, Table B1; 2% fetal bovine serum; class symbols; read-out: Average IC50 of compounds in hTHP-1 assay: hTHP-1 IC50
Description: The following protocol is suitable for testing the activity of the compounds disclosed herein. Procedure 1: IL-1β Production in PMA-Differentiated THP-1 Cells Stimulated with Gramicidin.
THP-1 cells were purchased from the American Type Culture Collection and sub-cultured according to instructions from the supplier. Cells were cultured in complete RPMI 1640 (containing 10% heat inactivated FBS, penicillin (100 units/ml) and streptomycin (100 μg/ml)), and maintained in log phase prior to experimental setup. Prior to the experiment, compounds were dissolved in dimethyl sulfoxide (DMSO) to generate a 30 mM stock. The compound stock was first pre-diluted in DMSO to 3, 0.34, 0.042 and 0.0083 mM intermediate concentrations and subsequently spotted using Echo550 liquid handler into an empty 384-well assay plate to achieve desired final concentration (e.g. 100, 33, 11, 3.7, 1.2, 0.41, 0.14, 0.046, 0.015, 0.0051, 0.0017 μM). DMSO was backfilled in the plate to achieve a final DMSO assay concentration of 0.37%. The plate was then sealed and stored at room temperature until required.
THP-1 cells were treated with PMA (Phorbol 12-myristate 13-acetate) (20 ng/ml) for 16-18 hours. On the day of the experiment the media was removed and adherent cells were detached with trypsin for 5 minutes. Cells were then harvested, washed with complete RPMI 1640, spun down, and resuspended in RPMI 1640 (containing 2% heat inactivated FBS, penicillin (100 units/ml) and streptomycin (100 μg/ml). The cells were plated in the 384-well assay plate containing the spotted compounds at a density of 50,000 cells/well (final assay volume 50 μl). Cells were incubated with compounds for 1 hour and then stimulated with gramicidin (5 μM) (Enzo) for 2 hours. Plates were then centrifuged at 340 g for 5 min. Cell free supernatant (40 μL) was collected using a 96—CHannel PlateMaster (Gilson) and the production of IL-1β was evaluated by HTRF (cisbio). The plates were incubated for 18 h at 4° C. and read using the preset HTRF program (donor emission at 620 nm, acceptor emission at 668 nm) of the SpectraMax i3x spectrophotometer (Molecular Devices, software SoftMax 6). A vehicle only control and a dose titration of CRID3 (100-0.0017 μM) were run concurrently with each experiment.
Procedure 2: IL-1β Production in PMA-Differentiated THP-1 Cells Stimulated with Gramicidin.
THP-1 cells were purchased from the American Type Culture Collection and sub-cultured according to instructions from the supplier. Prior to experiments, cells were cultured in complete RPMI 1640 (containing 10% heat inactivated FBS, penicillin (100 units/ml) and streptomycin (100 μg/ml)), and maintained in log phase prior to experimental setup. Prior to the experiment THP-1 were treated with PMA (Phorbol 12-myristate 13-acetate) (20 ng/ml) for 16-18 hours. Compounds were dissolved in dimethyl sulfoxide (DMSO) to generate a 30mM stock. On the day of the experiment the media was removed and adherent cells were detached with trypsin for 5 minutes. Cells were then harvested, washed with complete RPMI 1640, spun down, resuspended in RPMI 1640 (containing 2% heat inactivated FBS, penicillin (100 units/ml) and streptomycin (100 μg/ml). The cells were plated in a 384-well plate at a density of 50,000 cells/well (final assay volume […]). Compounds were first dissolved in assay medium to obtain a 5× top concentration of 500 μM. 10 step dilutions (1:3) were then undertaken in assay medium containing 1.67% DMSO. 5× compound solutions were added to the culture medium to achieve desired final concentration (e.g. 100, 33, 11, 3.7, 1.2, 0.41, 0.14, 0.046, 0.015, 0.0051, 0.0017 μM). Final DMSO concentration was at 0.37%. Cells were incubated with compounds for 1 hour and then stimulated with gramicidin (5 μM) (Enzo) for 2 hours. Plates were then centrifuged at 340 g for 5 min. Cell free supernatant (40 μL) was collected using a 96—CHannel PlateMaster (Gilson) and the production of IL-1β was evaluated by HTRF (cisbio). […]

**Q.** For `CN(C)Cc1ccc(S(N)(=O)=NC(=O)Nc2c3c(nc4c2CCC4(C)C)CCC3)cc1` (single isomer, unassigned) [Compound 125b, (R) or (S)-N′-((3,3-dimethyl-1,2,3,5,6,7-hexahydro-dicyclopenta[b,e]pyridin-8-yl)carbamoyl)-4-((dimethylamino)meth-yl)benzene-sulfonimidamide], which IC50 is on record?
**A.** 1000 to 5000 nM

Same assay, conditions: Homo sapiens, THP-1, Table B1; 2% fetal bovine serum; numeric bounds; read-out: Average IC50 of compounds in hTHP-1 assay: hTHP-1 IC50

**Q.** For `CN(C)Cc1ccc(S(N)(=O)=NC(=O)Nc2c3c(nc4c2CCC4(C)C)CCC3)cc1` (single isomer, unassigned) [Compound 125a, (S) or (R)-N′-((3,3-dimethyl-1,2,3,5,6,7-hexahydro-dicyclopenta[b,e]pyridin-8-yl)carbamoyl)-4-((dimethylamino)meth-yl)benzene-sulfonimidamide], which IC50 is on record?
**A.** > 30000 nM

**Q.** Which IC50 does the source give for `CC1CCc2c1nc1c(c2NC(=O)N=S(N)(=O)c2ccn(C(C)C)n2)CCC1` (single isomer, unassigned) [Compound 129ab, (S,S) or (S,R)-1-isopropyl-N′-((3-methyl-1,2,3,5,6,7-hexa-hydrodicyclo-penta[b,e]pyridin-8-yl)carbamoyl)-1H-pyrazole-3-sulfonimidamide] here?
**A.** > 30000 nM

Same assay, conditions: Table B1; 2% fetal bovine serum; class symbols; read-out: Average IC50 of compounds in hTHP-1 assay: hTHP-1 IC50

**Q.** For `CC(C)n1ccc(S(N)(=O)=NC(=O)Nc2c3c(nc4c2CCC4(C)C)CCC3)n1` (single isomer, unassigned) [Compound 126a, (R) or (S)-N′-((3,3-dimethyl-1,2,3,5,6,7-hexahydro-dicyclopenta[b,e]pyridin-8-yl)carbamoyl)-1-isopropyl-1H-pyrazole-3-sulfonimidamide], which IC50 is on record?
**A.** 40 to 200 nM

**Q.** `CC(C)n1ccc(S(N)(=O)=NC(=O)Nc2c3c(nc4c2CCC4(C)C)CCC3)n1` (single isomer, unassigned) [Compound 126b, (S) or (R)-N′-((3,3-dimethyl-1,2,3,5,6,7-hexahydro-dicyclopenta[b,e]pyridin-8-yl)carbamoyl)-1-isopropyl-1H-pyrazole-3-sulfonimidamide] was tested. Which IC50 did it give?
**A.** 5000 to 30000 nM

**Q.** Which IC50 does the source give for `CC(C)(O)c1csc(S(N)(=O)=NC(=O)Nc2c3c(nc4c2CCC4(C)C)CCC3)c1` (single isomer, unassigned) [Compound 127a, (S) or (R)-N′-((3,3-dimethyl-1,2,3,5,6,7-hexahydro-dicyclopenta[b,e]pyridin-8-yl)carbamoyl)-4-(2-hydroxypropan-2-yl)thiophene-2-sulfonimidamide] here?
**A.** 1000 to 5000 nM

**Q.** `CC(C)(O)c1csc(S(N)(=O)=NC(=O)Nc2c3c(nc4c2CCC4(C)C)CCC3)c1` (single isomer, unassigned) [Compound 127b, (R) or (S)-N′-((3,3-dimethyl-1,2,3,5,6,7-hexahydro-dicyclopenta[b,e]pyridin-8-yl)carbamoyl)-4-(2-hydroxypropan-2-yl)thio-phene-2-sulfonimidamide] was tested. Which IC50 did it give?
**A.** 40 to 200 nM

**Q.** For `CC(C)(O)c1ncc(S(N)(=O)=NC(=O)Nc2c3c(nc4c2CCC4)CCC3)s1` (single isomer, unassigned) [Compound 128a, (R) or (S)-N′-((1,2,3,5,6,7-hexahydrodicyclo-penta[b,e]pyridin-8-yl)carbamoyl)-2-(2-hydroxypropan-2-yl)thiazole-5-sulfonimidamide], which IC50 is on record?
**A.** 200 to 1000 nM

**Q.** With `CC(C)(O)c1ncc(S(N)(=O)=NC(=O)Nc2c3c(nc4c2CCC4)CCC3)s1` (single isomer, unassigned) [Compound 128b, (S) or (R)-N′-((1,2,3,5,6,7-hexahydrodicyclo-penta[b,e]pyridin-8-yl)carbamoyl)-2-(2-hydroxypropan-2-yl)thiazole-5-sulfonimidamide] as the compound, how does the IC50 read?
**A.** 5000 to 30000 nM

**Q.** `CC1CCc2c1nc1c(c2NC(=O)N=S(N)(=O)c2ccn(C(C)C)n2)CCC1` (single isomer, unassigned) [Compound 129aa, (R,R) or (R,S)-1-isopropyl-N′-((3-methyl-1,2,3,5,6,7-hexa-hydrodicyclo-penta[b,e]pyridin-8-yl)carbamoyl)-1H-pyrazole-3-sulfonimidamide] was tested. Which IC50 did it give?
**A.** 40 to 200 nM
